Experimental data taken from article PMC4838876, “Multivalent display of minimal Clostridium difficile glycan epitopes mimics antigenic properties of larger glycans” (Nature Communications, 2016).

Target: mAb 10A1 (anti-PS-I IgG1)
Test: Kinetic SPR of glycans binding to captured mAb 10A1
Parameters: species or system mouse
Details: mAb 10A1, PBS, 25 °C, mean (min;max) n=2
Method: Kinetic SPR experiments were performed to determine the binding strengths of the mAbs to PS-I glycans expressed as dissociation constants (KD)[8] (Fig. 5a). […] Overall, the SPR measurements (summarized in Table 1) confirmed results obtained by glycan microarray presented above.
Figure 5 KD values of anti-PS-I mAbs binding to 1 and 3 inferred by SPR. (a) mAbs were captured with an anti-mouse IgG antibody immobilized on the SPR sensor surface. Glycan antigens were passed over the surface to monitor changes in the response unit signals. (b,c) Representative sensorgrams showing reference-subtracted binding signals to 1 (b) and 3 (c). KD values were calculated by fitting the curves to a 1:1 Langmuir binding model (black overlaid curves) or with a steady-state affinity model (response units versus concentration plots). Indicated KD values are mean±s.e.m. of n=3 or mean with minimum and maximum values in parentheses of n=2 independent experiments. See Supplementary Figs 3–5 for details.
Binding analyses were carried out on a Biacore T100 instrument (GE Healthcare). […] The fitting quality was evaluated by investigating respective residual plots, χ^2 and s.e. values for on- and off-rates. […]

Row | Compound | Kd [µM]
1 | C[C@@H]1O[C@@H](O[C@@H]2[C@@H](O)[C@H](OCCCCCN)O[C@H](CO)[C@H]2O)[C@H](O)[C@H](O)[C@H]1O [Compound 3, Rha-(1→3)-Glc] | 5.9
2 | C[C@@H]1O[C@@H](O[C@@H]2[C@@H](O)[C@H](O[C@H]3[C@H](O[C@@H]4O[C@@H](C)[C@H](O)[C@@H](O)[C@H]4O)[C@@H](O)[C@@H](O[C@H]4[C@@H](OCCCCCN)O[C@H](CO)[C@@H](O)[C@@H]4O)O[C@@H]3CO)O[C@H](CO)[C@H]2O)[C@H](O)[C@H](O)[C@H]1O [Compound 1] | 0.245
